The text below walks through data of patent publication US7985745B2, “Method for pain treatment” (Abbott Laboratories, priority 2006, dated 2011).

One assay relates to tactile allodynia. Put plainly: Complete Freund's adjuvant model, tactile allodynia by von Frey filaments. It counts as in vivo, rat. Conditions: 48 hours after CFA, mechanical stimulus. On the procedure: In a separate method of assessing the effectiveness of representative compounds of the invention against hyperalgesia, animals were tested in the acute model of adjuvant-induced hyperalgesia using Complete Freund's Adjuvant (CFA) as described above, but in this case, tactile allodynia to a mechanical stimulus was measured using calibrated von Frey filaments (Stoelting, Wood Dale, Ill.). Animals were prepared as described above: a solution of Complete Freund's adjuvant (150 microliters of a 50% aqueous solution, Sigma Chemical Company, St. Louis, Mo.) was injected into the plantar surface of test paw of the animal (rat). Rats so injected develop a hyperalgesia to mechanical (touch) stimulation which is assessed 48 hours after injection of the Complete Freund's adjuvant. Withdrawal threshold was determined by increasing and decreasing stimulus intensity, and estimated using the Dixon's up-down method (Dixon, Annual Rev. Pharmacol. Toxicol. (1980) vol. 20, pp. 441-462; Chaplan et al. “Quantitative assessment of tactile allodynia in the rat paw” J. Neuroscience Methods (1994) vol. 53 pp. 55-63). Rats were placed into inverted individual plastic containers (20×12.5×20 cm) on top of a suspended wire mesh with a 1 cm^2 grid to provide access to the ventral side of the hind paws, and acclimated to the test chambers for 20 min. The von Frey filaments were presented perpendicularly to the plantar surface of the selected hind paw, and then held in this position for approximately 8 seconds with enough force to cause a slight bend in the filament. Positive responses included an abrupt withdrawal of the hind paw from the stimulus, or flinching behavior immediately following removal of the stimulus. Withdrawal threshold was determined using an up-down procedure (Dixon, Annual Rev. Pharmacol. Toxicol. (1980) vol. 20, pp. 441-462; Chaplan et al. “Quantitative assessment of tactile allodynia in the rat paw” J. Neuroscience Methods (1994) vol. 53 pp. 55-63). The strength of the maximum filament used for von Frey testing was 15.0 g.

Another assay concerns inflammatory pain. Put plainly: Carrageenan-induced thermal hyperalgesia, hotbox assay. Conditions: 90 minutes after carrageenan, tested 30 minutes after dosing. Format: in vivo. On the procedure: To assess the effectiveness of representative compounds of the invention against acute model inflammatory pain, animals were tested in an acute model of carrageenan-induced thermal hyperalgesia (see for example, Honore, et al. Behavioural Brain Research 167 (2006) 355-364; Porreca, et al. Journal of Pharmacology and Experimental Therapeutics (2006) vol. 318 pp. 195-205). Carrageenan was injected into the test paw of the animal, and after 90 minutes, the test drug was administered by intraperitoneal dosing. The effect on thermal hyperalgesia was assessed in a hotbox assay which was done 30 minutes after the intraperitoneal dosing of the test drug, and the MPE (maximal percent effect) reported by comparison to the control paw (not injected with carrageenan), according to 100 times the withdrawal latency of the carrageenan injected paw (in seconds) divided by the withdrawal latency of the control (not injected with carrageenan) paw.

The test system of another assay is neuropathic pain. The assay is described as follows: Chung model: L5/L6 spinal nerve ligation, mechanical allodynia by von Frey filaments. Format: in vivo, rat. The note with it: 30 minutes before testing. On the procedure: Animals were prepared for testing, by use of a surgical procedure that induces neuropathic pain in one paw. Male Sprague Dawley rats were purchased from Charles River (Portage, Mich.). Prior to surgery, animals were housed in groups and maintained in a temperature-regulated environment. Following nerve ligation surgery, animals were housed in groups, and had access to food and water ad libitum.
The L5 and L6 spinal nerves of anesthetized rats were tightly ligated in a manner described previously (see Kim and Chung, Pain (1992) vol. 50 pp. 355-363). An incision was made on the dorsal portion of the hip and the muscle was blunt-dissected to reveal the spinal processes. The L6 transverse process was removed, and the left side L5 and L6 spinal nerves were tightly ligated with 5.0 braided silk suture. The wound was cleaned, the membrane sewn with 4.0 dissolvable Vicryl suture and the skin closed with wound clips. The paw affected by the surgical procedure (the left paw) develops an allodynic response, a hypersensitivity to mechanical and other stimuli; neuropathic pain is assessed as an increased sensitivity in the surgically affected (left) allodynic paw compared to the control paw on the right side, and measured by comparing the response of the (left side) allodynic paw to the response of the unaffected right side control paw.
For the assessment of neuropathic pain, mechanical allodynia in the affected paw of animals that had undergone spinal nerve ligation was evaluated using testing with von Frey filaments. As described previously by S. R. Chaplan, et al (“Quantitative assessment of tactile allodynia in the rat paw” J. Neurosci. Meth. (1994) vol. 53 pp. 55-63), two weeks following surgery rats were acclimated to a testing box constructed of plexiglass with a wire mesh floor which allowed access to the plantar surface of the animal's hindpaws. Using an Up-Down method (Dixon, Annual Rev. Pharmacol. Toxicol. (1980) vol. 20, pp. 441-462; Chaplan et al. “Quantitative assessment of tactile allodynia in the rat paw” J. Neuroscience Methods (1994) vol. 53 pp. 55-63), von Frey filaments of increasing stiffness were applied to the plantar surface of the hindpaws and the withdrawal response of the animals was observed; for the surgically affected paw with neuropathic pain (the left side paw) the baseline level of allodynia has a withdrawal threshold of ≦4 g of pressure. By comparison, for the control paw without allodynia (in this case the right side paw), the typical withdrawal pressure is around 15 g. Representative compounds of the invention, administered intraperitoneally 30 minutes before testing, are able to reduce the symptoms of neuropathic pain and induce a dose-dependent increase in the withdrawal threshold for allodynic (left side) limb, up to a maximum effect of 15 g. The efficacy of the compound in reducing neuropathic pain at different doses is determined by comparing response in the surgery-affected paw versus the response in the control paw. This is expressed as the MPE (maximum percent effect), or 100 times the withdrawal threshold of the allodynic (left side) divided by the withdrawal threshold of the control (right side).

In assay [1] the test system is mechanical allodynia after skin incision. Put plainly: Surgical skin incision model, mechanical allodynia by von Frey hair. Format: in vivo, rat. How it is done:
This is a surgical skin incision model (Joshi, et al. Pain 123 (2006) 75-82). Animals (rats) were prepared for testing by subjecting them to a surgical procedure carried out under sterile conditions, where the plantaris muscle was elevated and incised longitudinally with the origin and insertion of the muscle remaining intact. The skin was then closed with two mattress sutures (e.g. 5-0 nylon sutures). After surgery, animals were allowed to recover on a warming plate and housed individually in cages with soft bedding. […] Animals were tested for mechanical allodynia using von Frey hair mechanical stimulation 2, 24, and 48 h after surgery as described for the Chung model.

Structures are written as SMILES.

For `CNC1CN(c2nc(N)nc3c2CCCc2ccccc2-3)C1` [Example 6, 4-(3-Methylamino-azetidin-1-yl)-6,7-dihydro-5H-benzo[6,7]cyclohepta[1,2-d]pyrimidin-2-ylamine], the MPE with tactile allodynia (30 micromole/kg i.p.) came to 35%; with tactile allodynia (100 micromole/kg i.p.), 49%; in the assay with inflammatory pain (100 micromole/kg i.p.) it was 41%; with neuropathic pain (100 micromole/kg i.p.), 36%; in the assay on neuropathic pain (300 micromole/kg i.p.) it was 78%; in assay [1] (30 micromole/kg i.p.), 21%. Further, in assay [1] (100 micromole/kg i.p.), the MPE worked out at 69%.

`CN1CCN(C(=O)c2cc3cc(Cl)ccc3[nH]2)CC1` [Example 3, reference compound]: the MPE is listed as 55% with tactile allodynia (30 micromole/kg i.p.); 71% with tactile allodynia (300 micromole/kg i.p.); 23% in the assay on inflammatory pain (30 micromole/kg i.p.); 49% in the assay with inflammatory pain (100 micromole/kg i.p.); 96% in the assay on inflammatory pain (300 micromole/kg i.p.); 16% in the assay on neuropathic pain (100 micromole/kg i.p.). In addition, the MPE in the assay on neuropathic pain (250 micromole/kg i.p.) was found to be 50%; in the assay on neuropathic pain (500 micromole/kg i.p.) it was 94%; in assay [1] (250 micromole/kg i.p.), 46%; in assay [1] (500 micromole/kg i.p.) it was 79%.

In the case of `CN1CCN(c2cc(-c3ccc(C#N)cc3)nc(N)n2)CC1.O=C(O)/C=C\C(=O)O` [Example 1, 4-(2-Amino-6-(4-methylpiperazin-1-yl)pyrimidin-4-yl)benzonitrile, maleate], the MPE is on record as 42% with tactile allodynia (30 micromole/kg i.p.); 63% in the assay with tactile allodynia (100 micromole/kg i.p.); 36% in the assay with inflammatory pain (30 micromole/kg i.p.); 100% in the assay on inflammatory pain (100 micromole/kg i.p.); 14% in the assay on neuropathic pain (30 micromole/kg i.p.); 44% in the assay with neuropathic pain (100 micromole/kg i.p.). The MPE is given as 77% in the assay on neuropathic pain (300 micromole/kg i.p.), 97% in the assay with neuropathic pain (500 micromole/kg i.p.), 31% in assay [1] (30 micromole/kg i.p.) and 65% in assay [1] (100 micromole/kg i.p.).
